Measured values reported in ChEMBL document CHEMBL1201862, “PubChem BioAssay data set” (2004).
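These data come from cells grown in 96-well plates and exposed to compound for 48 hours at five concentrations. Abbreviation: GI50, concentration required for 50% inhibition of growth.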 Activity calls are given as the source filed them. Cut-off read from the data, not from the text of the source: active = GI50 up to about 1.1 µM and inactive = higher.

How the values were obtained:
Assay in all cases: NCI anticancer screen, dose series, 48 h
[1] = test system: A498
[2] = test system: BT-549
[3] = test system: CAKI-1
[4] = test system: CCRF-CEM
[5] = test system: COLO 205
[6] = test system: EKVX
[7] = test system: HCT-116
[8] = test system: LOX IMVI
[9] = test system: MDA-MB-435
[10] = test system: Malme-3M
[11] = test system: NCI-H460
[12] = test system: NCI-H522
[13] = test system: SK-MEL-5
[14] = test system: SK-OV-3
[15] = test system: SN12C
[16] = test system: SNB-75
[17] = test system: SW-620
[18] = test system: U-251
[19] = test system: UACC-257

SMILES | GI50 [1] | GI50 [2] | GI50 [3] | GI50 [4] | GI50 [5] | GI50 [6] | GI50 [7] | GI50 [8] | GI50 [9] | GI50 [10] | GI50 [11] | GI50 [12] | GI50 [13] | GI50 [14] | GI50 [15] | GI50 [16] | GI50 [17] | GI50 [18] | GI50 [19]
O=C1C=CC2(O[C@H](c3ccccc3)[C@@H](c3ccccc3)O2)[C@H](Sc2ccccc2O)C1 | 2.24 µM (inactive) | 0.502 µM (active) | 0.34 µM (active) | < 0.0156 µM (active) | 0.499 µM (active) | 1.43 µM (inactive) | 0.122 µM (active) | 0.163 µM (active) | 0.309 µM (active) | 0.294 µM (active) | 2.13 µM (inactive) | 0.0532 µM (active) | 0.993 µM (active) | 3.27 µM (inactive) | 0.204 µM (active) | 3.28 µM (inactive) | 0.0824 µM (active) | 0.498 µM (active) | 0.658 µM (active)
O=C(O)Cn1cnc2c(O)nc(Nc3ccccc3)nc21 | > 100 µM (inactive) | > 100 µM (inactive) | > 100 µM (inactive) | > 100 µM (inactive) | > 100 µM (inactive) | > 100 µM (inactive) | > 100 µM (inactive) | > 100 µM (inactive) | > 100 µM (inactive) | > 100 µM (inactive) | > 100 µM (inactive) | > 100 µM (inactive) | > 100 µM (inactive) | > 100 µM (inactive) | > 100 µM (inactive) | > 100 µM (inactive) | > 100 µM (inactive) | > 100 µM (inactive) | > 100 µM (inactive)
CCN(CC)CC(=O)Nc1c(C(N)=O)nnn1Cc1cc(Cl)c(C(=O)c2ccc(Cl)cc2)c(Cl)c1 | 37.9 µM (inactive) | 17.8 µM (inactive) | 22.5 µM (inactive) | 18 µM (inactive) | 16.9 µM (inactive) | 27.2 µM (inactive) | 16.5 µM (inactive) | 16.1 µM (inactive) | 18.5 µM (inactive) |  |  | 18.1 µM (inactive) | 16.4 µM (inactive) | 21.6 µM (inactive) | 22.6 µM (inactive) | 21 µM (inactive) | 19.2 µM (inactive) | 19.5 µM (inactive) | 18.1 µM (inactive)
O=c1c(F)cn(Cc2c(Cl)cccc2Cl)c(=O)n1Cc1c(Cl)cccc1Cl | > 31.6 µM (inactive) | > 31.6 µM (inactive) | > 21.5 µM (inactive) | 27 µM (inactive) | 19.9 µM (inactive) | 21.4 µM (inactive) | 23.8 µM (inactive) | > 31.6 µM (inactive) | 29.6 µM (inactive) | > 31.6 µM (inactive) | > 31.6 µM (inactive) | 16 µM (inactive) | 18.1 µM (inactive) | > 31.6 µM (inactive) | > 31.6 µM (inactive) | 16.5 µM (inactive) | > 31.6 µM (inactive) | > 31.6 µM (inactive) | > 31.6 µM (inactive)
Cc1nc(C(N)=S)sc1C(=O)CC(=O)C(=O)Nc1nc2ccccc2[nH]1 | > 100 µM (inactive) | > 100 µM (inactive) | > 100 µM (inactive) |  |  | > 100 µM (inactive) | > 100 µM (inactive) | > 100 µM (inactive) | > 100 µM (inactive) | > 100 µM (inactive) | > 100 µM (inactive) | > 100 µM (inactive) | > 100 µM (inactive) | > 100 µM (inactive) | > 100 µM (inactive) | > 100 µM (inactive) | > 100 µM (inactive) | > 100 µM (inactive) | > 100 µM (inactive)
C1CCN2CC3CCCN4CCCC(C2C1)C34 (stereo unspecified) | > 100 µM (inactive) | > 100 µM (inactive) | > 100 µM (inactive) | > 100 µM (inactive) | > 100 µM (inactive) | > 100 µM (inactive) | > 100 µM (inactive) | > 100 µM (inactive) | > 100 µM (inactive) | > 100 µM (inactive) | > 100 µM (inactive) | > 100 µM (inactive) | > 100 µM (inactive) | > 100 µM (inactive) | > 100 µM (inactive) | 50.1 µM (inactive) | > 100 µM (inactive) | > 100 µM (inactive) | > 100 µM (inactive)
CCOC(=O)C1C(=O)CC(O)(OCC)C(C(=O)OCC)C1c1ccc(OC)cc1 (stereo unspecified) | > 100 µM (inactive) | > 100 µM (inactive) | > 100 µM (inactive) | > 100 µM (inactive) | > 100 µM (inactive) | > 100 µM (inactive) | > 100 µM (inactive) | > 100 µM (inactive) | > 100 µM (inactive) | > 100 µM (inactive) | > 100 µM (inactive) | > 100 µM (inactive) | > 100 µM (inactive) |  | > 100 µM (inactive) | > 100 µM (inactive) | > 100 µM (inactive) | > 100 µM (inactive) | > 100 µM (inactive)
O=C(O)C(Cc1ccccc1-c1ccccc1)C(=O)O | > 100 µM (inactive) | > 100 µM (inactive) | > 100 µM (inactive) |  | > 100 µM (inactive) | > 100 µM (inactive) | > 100 µM (inactive) | > 100 µM (inactive) | > 100 µM (inactive) | > 100 µM (inactive) | > 100 µM (inactive) | > 100 µM (inactive) | > 100 µM (inactive) |  | > 100 µM (inactive) | > 100 µM (inactive) | > 100 µM (inactive) | > 100 µM (inactive) | > 100 µM (inactive)
O=C(CC(=O)Nc1ccccc1)NNC(c1cc(/N=N/c2ccc(Br)cc2)ccc1O)P(O)O (stereo unspecified) | 2.43 µM (inactive) | 4 µM (inactive) | 3.02 µM (inactive) | 0.322 µM (active) | 4.49 µM (inactive) |  | 0.504 µM (active) | 1.71 µM (inactive) | 1.77 µM (inactive) | 2.38 µM (inactive) | 0.447 µM (active) | 3.48 µM (inactive) | 1.53 µM (inactive) | 5.48 µM (inactive) | 4.04 µM (inactive) | 2.32 µM (inactive) | 1.55 µM (inactive) | 3.51 µM (inactive) | 4.89 µM (inactive)
Cc1ccc(S(=O)(=O)N2CC2CCCCC=O)cc1 (stereo unspecified) | > 100 µM (inactive) | > 100 µM (inactive) | > 100 µM (inactive) | 21.6 µM (inactive) | > 100 µM (inactive) | > 100 µM (inactive) | 57 µM (inactive) | 20.1 µM (inactive) | > 100 µM (inactive) | > 100 µM (inactive) |  | 72.8 µM (inactive) | 54.2 µM (inactive) | > 100 µM (inactive) | > 100 µM (inactive) | > 100 µM (inactive) | 52.7 µM (inactive) | 27.4 µM (inactive) | > 100 µM (inactive)
CCCCCCCCCc1cc(-c2ccc(C=O)s2)sc1-c1ccc(C=O)s1 | 1.6 µM (inactive) | 35.3 µM (inactive) |  | 2.23 µM (inactive) | 20 µM (inactive) | 70.6 µM (inactive) | 16.6 µM (inactive) | 11.5 µM (inactive) | 22.6 µM (inactive) | 40.5 µM (inactive) | 25.1 µM (inactive) | 15.9 µM (inactive) | 15.7 µM (inactive) | 29 µM (inactive) | 32.5 µM (inactive) | 27 µM (inactive) | 30.2 µM (inactive) | 10 µM (inactive) | 13.6 µM (inactive)
COc1ccc(OC)c2nc3c(C(=O)NCCN(C)C)cccc3nc12 | 13.9 µM (inactive) | 10.8 µM (inactive) | 3.22 µM (inactive) | 2.29 µM (inactive) | 2.37 µM (inactive) | 6.58 µM (inactive) | 1.79 µM (inactive) | 1.78 µM (inactive) | 5.11 µM (inactive) | 8.65 µM (inactive) | 3.24 µM (inactive) | 2.61 µM (inactive) | 3.67 µM (inactive) |  | 4.11 µM (inactive) | 11.7 µM (inactive) | 1.77 µM (inactive) | 4.21 µM (inactive) | 3.88 µM (inactive)
COc1ccc(/C(=N\Nc2ccccn2)c2ccccn2)cc1 | 38.2 µM (inactive) | 0.818 µM (active) | < 0.01 µM (active) | < 0.01 µM (active) | < 0.01 µM (active) | < 0.01 µM (active) | < 0.01 µM (active) |  | 0.156 µM (active) | < 0.01 µM (active) | < 0.0287 µM (active) | < 0.01 µM (active) | 0.0303 µM (active) | 0.107 µM (active) | < 0.01 µM (active) | 0.414 µM (active) | < 0.01 µM (active) | < 0.0178 µM (active) | < 0.01 µM (active)
CCCCNC(=S)Nc1nc(C(=O)NNC(=S)NCC)cs1 | > 100 µM (inactive) | > 100 µM (inactive) | 63.5 µM (inactive) | 44 µM (inactive) | 62.5 µM (inactive) | 16.5 µM (inactive) | 53.1 µM (inactive) | 33.2 µM (inactive) | > 100 µM (inactive) | > 100 µM (inactive) |  | > 100 µM (inactive) | 25.7 µM (inactive) | > 100 µM (inactive) | 56.8 µM (inactive) | > 100 µM (inactive) | 97.9 µM (inactive) | > 100 µM (inactive) | > 100 µM (inactive)
COC(=O)C1=C(O)C(C(=O)OC)[C@]2(O)[C@H](C(=O)OC)[C@H]1C[C@@H](c1cccc(OC)c1)[C@H]2C(=O)OC (stereo partly specified) | 21.4 µM (inactive) | 30.6 µM (inactive) | 22.4 µM (inactive) |  | 46.1 µM (inactive) | 29.5 µM (inactive) | 22.2 µM (inactive) | 36.5 µM (inactive) | 17.5 µM (inactive) | 24.5 µM (inactive) | 22.2 µM (inactive) | 6.1 µM (inactive) | 23.5 µM (inactive) | 28.2 µM (inactive) | 22.9 µM (inactive) | 27.5 µM (inactive) | 21.5 µM (inactive) | 24.2 µM (inactive) | 37.7 µM (inactive)
